Test results as given in patent US9371328B2, “Imidazopyridazinecarbonitriles useful as kinase inhibitors” (BRISTOL-MYERS SQUIBB COMPANY, priority 2008, dated 2016).
Where two headings read alike, the source gives them in different places.

Legend:
[1] = target: T1, CK2A2 (CK2α′/β) (Homo sapiens, UniProt P19784); assay: CK2 kinase assay, CK2A2 (CK2α′/β); assay type: biochemical
T1 construct: made in house
Method: (§1) The effectiveness of compounds of the present invention as inhibitors of protein kinases can be readily tested by assays known to those skilled in the art. For example, in vitro protein kinase assays may be conducted with a relevant purified protein kinase and an appropriate synthetic substrate to determine the inhibitory activity of the compounds. […] Reaction mixtures were incubated at 30° C. for 1 hour, and reaction products were captured by binding to phosphocellulose (P81) filter plates. Incorporation of radioactive phosphate into the peptide substrate was determined by liquid scintillation counting. The potency of compounds in inhibiting CK2 is expressed as IC50, defined as the concentrations of compounds required to inhibit the enzymatic activity by 50%.
(§2) The inhibitory activity of the instant compounds may also be measured by recombinant CK2 holoenzyme kinase assays. The assays were performed in U-bottom 384-well plates. The final assay volume was 30 μl prepared from 15 μl additions of enzyme and substrates (fluoresceinated peptide FL-RRRADDSDDDDD-NH2 and ATP) and test compounds in assay buffer (20 mM HEPES pH 7.4, 10 mM MgCl2, 100 mM NaCl, 0.015% Brij35 and 0.25 mM DTT). The reaction was initiated by the combination of bacterially expressed, CK2 α/β or CK2 α′/β holoenzyme with substrates and test compounds. The reaction was incubated at room temperature for 60 minutes and terminated by adding 30 μl of 35 mM EDTA to each sample. The reaction mixture was analyzed on the Caliper LABCHIP® 3000 (Caliper, Hopkinton, Mass.) by electrophoretic separation of the fluorescent substrate and phosphorylated product. Inhibition data were calculated by comparison to no enzyme control reactions for 100% inhibition and vehicle-only reactions for 0% inhibition. The final concentration of reagents in the CK2 α/β assay was 25 μM ATP, 1.5 μM FL-RRRADDSDDDDD-NH2, […] CK2 α/β holoenzyme, and 1.6% DMSO. The final concentration of reagents in the CK2 α′/β assay was 10 μM ATP, 1.5 μM FL-RRRADDSDDDDD-NH2, 100 pM CK2 α′/β holoenzyme, and 1.6% DMSO. Dose response curves were generated to determine the concentration required inhibiting 50% of kinase activity (IC50). Compounds were dissolved at 10 mM in dimethylsulfoxide (DMSO) and evaluated at eleven concentrations. IC50 values were derived by non-linear regression analysis.

[2] = target: T2, CK2A1 (CK2α/β) (Homo sapiens, UniProt P68400); assay: CK2 kinase assay, CK2A1 (CK2α/β); assay type: biochemical
T2 construct: made in house
Method: as §1, §2

[3] = test system: HCT116; assay: Cell proliferation inhibition assay (MTT/MTS); assay type: cell-based; conditions: Homo sapiens, HCT-116, Table 1, 72 h with compound
Method: Compounds were evaluated for their ability to inhibit cell proliferation, using an assay that measures mitochondrial metabolic activity, that is directly correlated with cell numbers. Cells were plated at 2000 cells/well in 96-well plates and were cultured for 24 h in RPMI-1640 supplemented with 2% fetal bovine serum, before test compounds were added. Compounds were diluted in culture medium such that the final concentration of dimethyl sulfoxide never exceeded 1%. Following the addition of compounds, the cells were cultured for an additional 72 h before cell viability was determined by measuring the conversion of 3-(4,5-dimethylthiazol-2-yl)-2,5-diphenyltetrazolium bromide (MTT) dye using the CellTiter96 kit (Promega) or by measuring the conversion of [3-(4,5-dimethylthiazol-2-yl)-5-(3-carboxymethoxyphenyl)-2-(4-sulfophenyl)-2H-tetrazolium (MTS) dye using the CELLTITER 96® AQueous (Promega).

[4] = Table 1, read-out: CK2A2 (CK2α′/β) (IC50)
[5] = Table 1, read-out: CK2A1 (CK2α/β) (IC50)
[6] = Table 2, comparison compounds of US 2008/0045536, read-out: CK2A1 IC50
[7] = Table 2, comparison compounds of US 2008/0045536, read-out: CK2A2 IC50

T1 sequence (P19784 whole entry, species assumed): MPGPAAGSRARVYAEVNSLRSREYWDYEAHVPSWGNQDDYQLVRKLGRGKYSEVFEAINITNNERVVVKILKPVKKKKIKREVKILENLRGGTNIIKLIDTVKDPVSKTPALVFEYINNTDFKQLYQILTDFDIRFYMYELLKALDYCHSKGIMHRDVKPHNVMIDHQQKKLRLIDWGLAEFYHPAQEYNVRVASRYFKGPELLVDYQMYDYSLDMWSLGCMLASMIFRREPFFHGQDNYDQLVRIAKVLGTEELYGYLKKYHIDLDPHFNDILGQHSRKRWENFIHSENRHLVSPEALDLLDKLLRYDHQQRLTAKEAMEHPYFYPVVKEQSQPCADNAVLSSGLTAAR
T1 sequence (P67870 whole entry partner, species assumed): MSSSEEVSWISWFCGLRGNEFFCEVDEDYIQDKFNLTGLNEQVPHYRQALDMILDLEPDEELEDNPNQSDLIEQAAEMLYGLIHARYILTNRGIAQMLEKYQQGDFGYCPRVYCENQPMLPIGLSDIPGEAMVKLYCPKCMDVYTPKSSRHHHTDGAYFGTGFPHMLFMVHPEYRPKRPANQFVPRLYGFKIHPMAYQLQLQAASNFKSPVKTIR
T2 sequence (P68400 whole entry, species assumed): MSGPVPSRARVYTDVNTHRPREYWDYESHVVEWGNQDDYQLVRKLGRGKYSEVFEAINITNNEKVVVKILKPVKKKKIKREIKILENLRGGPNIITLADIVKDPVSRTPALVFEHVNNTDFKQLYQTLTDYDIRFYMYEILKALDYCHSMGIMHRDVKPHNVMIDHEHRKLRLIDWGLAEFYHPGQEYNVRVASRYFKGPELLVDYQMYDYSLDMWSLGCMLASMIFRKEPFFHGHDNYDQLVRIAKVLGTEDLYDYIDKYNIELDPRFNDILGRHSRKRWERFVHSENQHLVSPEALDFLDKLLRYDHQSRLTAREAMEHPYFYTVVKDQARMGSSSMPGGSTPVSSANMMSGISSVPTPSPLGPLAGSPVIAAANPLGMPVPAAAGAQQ
T2 sequence (P67870 whole entry partner, species assumed): as the sequence (P67870 whole entry partner, species assumed) above

| SMILES | IC50 [1, 4] | IC50 [2, 5] | IC50 [3] | IC50 [2, 6] | IC50 [1, 7] |
| --- | --- | --- | --- | --- | --- |
| CC(=O)Nc1cc(Nc2cc(NC3CC3)c3ncc(C#N)n3n2)ccc1C [Example 1, N-(5-((3-Cyano-8-(cyclopropylamino)imidazo[1,2-b]pyridazin-6-yl)amino)-2-methylphenyl)acetamide] | 0.0075 µM | 0.006 µM | 0.03 µM | – | – |
| N#Cc1ccc(Nc2cc(NC3CC3)c3ncc(C#N)n3n2)cc1C(F)(F)F [Example 31, 6-((4-Cyano-3-(trifluoromethyl)phenyl)amino)-8-(cyclopropylamino)imidazo [1,2-b]pyridazine-3-carbonitrile] | 0.0257 µM | 0.143 µM | 0.46 µM | – | – |
| COc1cc(Nc2cc(NC3CC3)c3ncc(C#N)n3n2)cc(-n2nnnc2C)c1 [Example 37, 8-(Cyclopropylamino)-6-((3-methoxy-5-(5-methyl-1H-tetrazol-1-yl)phenyl)amino) imidazo[1,2-b]pyridazine-3-carbonitrile] | 0.0045 µM | 0.011 µM | 0.163 µM | – | – |
| N#Cc1cnc2c(NC3CC3)cc(Nc3cccc(C(=O)O)c3)nn12 [Example 44, 3-((3-Cyano-8-(cyclopropylamino)imidazo [1,2-b]pyridazin-6-yl)amino) benzoic acid] | 0.0351 µM | 1.31 µM | > 1 µM | – | – |
| N#Cc1cnc2c(NC3CC3)cc(Nc3ccc(F)c(-n4cnnc4)c3)nn12 [Example 46, 8-(Cyclopropylamino)-6-((4-fluoro-3-(4H-1,2,4-triazol-4-yl)phenyl)amino)imidazo [1,2-b]pyridazine-3-carbonitrile] | 0.0024 µM | 0.0043 µM | 0.15 µM | – | – |
| N#Cc1ccc(Cl)c(Nc2cc(NC3CC3)c3ncc(C#N)n3n2)c1 [Example 47, 6-((2-Chloro-5-cyanophenyl)amino)-8-(cyclopropylamino) imidazo[1,2-b]pyridazine-3-carbonitrile] | 0.0052 µM | 0.0074 µM | 0.041 µM | – | – |
| Cn1cnnc1-c1cccc(Nc2cc(NC3CC3)c3ncc(C#N)n3n2)c1 [Example 48, 8-(Cyclopropylamino)-6-((3 - (4-methyl-4H-1,2,4-triazol-3-yl)phenyl)amino) imidazo[1,2-b]pyridazine-3-carbonitrile] | 0.106 µM | 0.417 µM | 0.46 µM | – | – |
| COc1ccc(Nc2cc(NC3CC3)c3ncc(C#N)n3n2)cc1OC [Example 56, 8-(Cyclopropylamino)-6-((3,4-dimethoxyphenyl)amino)imidazo[1,2-b] pyridazine-3-carbonitrile] | 0.0359 µM | 0.155 µM | 0.482 µM | – | – |
| N#Cc1cnc(Nc2cc(NC3CC3)c3ncc(C#N)n3n2)s1 [Example 57, 6-((5-Cyano-1,3-thiazol-2-yl)amino)-8-(cyclopropylamino) imidazo[1,2-b]pyridazine-3-carbonitrile] | 0.0582 µM | 0.31 µM | 0.521 µM | – | – |
| Cc1cc(O)nc2cc(Nc3cc(NC4CC4)c4ncc(C#N)n4n3)ccc12 [Example 58, 8-(Cyclopropylamino)-6-((4-methyl-2-oxo-1,2-dihydro-7-quinolinyl)amino)imidazo[1,2-b]pyridazine-3-carbonitrile] | 0.0022 µM | 0.0122 µM | 0.098 µM | – | – |
| CC(=O)N1CCc2ccc(Nc3cc(NC4CC4)c4ncc(C#N)n4n3)cc21 [Example 64, 6-((1-Acetyl-2,3-dihydro-1H-indol-6-yl)amino)-8-(cyclopropylamino)imidazo [1,2-b]pyridazine-3-carbonitrile] | 0.001 µM | 0.012 µM | 0.048 µM | – | – |
| CC(C)C(=O)Nc1cccc(Nc2cc(NC3CC3)c3ncc(C#N)n3n2)c1 [Example 66, N-(3-((3-Cyano-8-(cyclopropylamino)imidazo [1,2-b]pyridazin-6-yl)amino)phenyl)-2-methylpropanamide] | 0.778 µM | 6.06 µM | > 2.5 µM | – | – |
| N#Cc1cnc2c(NC3CC3)cc(Nc3cccc(C(N)=O)c3)nn12 [Example 71, 3-((3-Cyano-8-(cyclopropylamino)imidazo [1,2-b]pyridazin-6-yl)amino) benzamide] | 0.0156 µM | 0.261 µM | 0.945 µM | – | – |
| N#Cc1cnc2c(NC3CC3)cc(Nc3cccc(N4CCCC4=O)c3)nn12 [Example 73, 8-(Cyclopropylamino)-6-((3-(2-oxo-1-pyrrolidinyl)phenyl)amino)imidazo[1,2-b]pyridazine-3-carbonitrile] | 0.738 µM | 4.6 µM | 2.24 µM | – | – |
| Cc1nc(-c2cccc(Nc3cc(NC4CC4)c4ncc(C#N)n4n3)c2)cs1 [Example 80, 8-(Cyclopropylamino)-6-((3-(2-methyl-1,3-thiazol-4-yl)phenyl)amino)imidazo[1,2-b]pyridazine-3-carbonitrile] | 1.49 µM | 4.66 µM | > 1 µM | – | – |
| N#Cc1cnc2c(NC3CC3)cc(Nc3ccc(Cl)c(-c4ncco4)c3)nn12 [Example 81, 6-((4-Chloro-3-(1,3-oxazol-2-yl)phenyl)amino)-8-(cyclopropylamino)imidazo [1,2-b]pyridazine-3-carbonitrile] | 0.115 µM | 0.512 µM | > 1 µM | – | – |
| N#Cc1cnc2c(NC3CC3)cc(Nc3cccc(-c4nnco4)c3)nn12 [Example 82, 8-(Cyclopropylamino)-6-((3-(1,3,4-oxadiazol-2-yl)phenyl)amino)imidazo[1,2-b]pyridazine-3-carbonitrile] | 0.126 µM | 0.479 µM | 0.127 µM | – | – |
| CN1CCN(C(=O)c2ccc(Nc3cc(NC4CC4)c4ncc(C#N)n4n3)cc2N)CC1 [Example 89, 6-((3-Amino-4-((4-methyl-1-piperazinyl)carbonyl)phenyl)amino)-8-(cyclopropylamino)imidazo [1,2-b]pyridazine-3-carbonitrile] | 0.94 µM | 6.67 µM | > 1 µM | – | – |
| COC(=O)Nc1cc(Nc2cc(NC3CC3)c3ncc(C#N)n3n2)ccc1C(=O)N1CCN(C)CC1 [Example 93, Methyl (5-((3-cyano-8-(cyclopropylamino)imidazo [1,2-b]pyridazin-6-yl)amino)-2-((4-methyl-1-piperazinyl)carbonyl)phenyl) carbamate] | 0.0684 µM | 0.712 µM | > 1 µM | – | – |
| COC(=O)Nc1cc(Nc2cc(NC3CC3)c3ncc(C#N)n3n2)ccc1C [Example 95, Methyl (5-((3-cyano-8-(cyclopropylamino)imidazo [1,2-b]pyridazin-6-yl)amino)-2-methylphenyl) carbamate] | 0.003 µM | 0.0065 µM | 0.022 µM | – | – |
| COc1ccc(Nc2cc(Nc3ccc(OC(F)(F)F)c(-n4cnnc4)c3)nn3c(C#N)cnc23)nc1 [Example 111, 8-((5-Methoxy-2-pyridinyl)amino)-6-((3-(4H-1,2,4-triazol-4-yl)-4-(trifluoromethoxy)phenyl)amino)imidazo[1,2-b] pyridazine-3-carbonitrile] | 0.024 µM | 0.116 µM | 0.034 µM | – | – |
| CCOc1ccc(Nc2cc(N[C@H]3CC[C@H](N)CC3)nn3ccnc23)cc1 [I(1), reference compound] | – | – | – | > 50 µM | – |
| N[C@H]1CC[C@H](Nc2cc(Nc3ccccc3)c3nccn3n2)CC1 [I(7), reference compound] | – | – | – | > 50 µM | > 50 µM |
| Cc1ccc(Nc2cc(N[C@H]3CC[C@H](N)CC3)nn3ccnc23)nc1 [II(16), reference compound] | – | – | – | > 50 µM | 31.8 µM |
| Cc1c(N[C@H]2CC[C@H](N)CC2)nn2c(C#N)cnc2c1Nc1ccccc1 [XXV(1), reference compound] | – | – | – | 2.69 µM | 8.09 µM |
